Experimental data taken from BigSolDB 2.1.

CC#C[C@]1(O)CC[C@H]2[C@@H]3CCC4=CC(=O)CCC4=C3[C@@H](c3ccc(N(C)C)cc3)C[C@@]21C
solubility (mole fraction)
Settings | 273.15 K | 278.15 K | 283.15 K | 288.15 K | 293.15 K | 298.15 K | 303.15 K | 308.15 K | 313.15 K | 318.15 K
in THF | 5.16e-05 | 6e-05 | 6.95e-05 | 8.05e-05 | 9.3e-05 | 0.000107 | 0.000123 | 0.000142 | 0.000163 | 0.000188
in acetone | 0.000149 | 0.000184 | 0.000228 | 0.000281 | 0.000345 | 0.000422 | 0.000516 | 0.000628 | 0.000762 | 0.000922
in ethanol | 0.000122 | 0.000146 | 0.000174 | 0.000206 | 0.000244 | 0.000289 | 0.000341 | 0.000401 | 0.000472 | 0.000552
in ethyl acetate | 0.000103 | 0.000125 | 0.000152 | 0.000184 | 0.000223 | 0.00027 | 0.000325 | 0.000392 | 0.000471 | 0.000565
in isopropanol | 7.13e-05 | 0.000109 | 0.000164 | 0.000244 | 0.000358 | 0.000518 | 0.00074 | 0.00105 | 0.00146 | 0.00202
in methanol | 0.000445 | 0.00058 | 0.000756 | 0.000982 | 0.00128 | 0.00164 | 0.0021 | 0.00266 | 0.00333 | 0.00414
in n-butanol | 0.000172 | 0.000213 | 0.000264 | 0.000332 | 0.000412 | 0.000502 | 0.000612 | 0.000733 | 0.000875 | 0.00103
in n-propanol | 0.000138 | 0.000163 | 0.000192 | 0.000226 | 0.000266 | 0.00031 | 0.000362 | 0.000428 | 0.000499 | 0.000582
